Experiments:
[1] = test system: normal NK cells expanded with K562-aAPC; assay: drug sensitivity score (DSS) (DSS units); higher = more sensitive; extreme values may be limits of the assay; settings: 72 h; IL-2 2.5 ng/mL
Procedure: (§1)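 Drug sensitivity and resistance testing on K562-aAPC-expanded normal NK cells: 5 concentrations (10-fold steps over a 10,000-fold range), 72 h at 37 °C, viability by CellTiter-Glo normalised to DMSO and benzethonium chloride controls; DSS from the fitted curve.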

[2] = test system: normal NK cells expanded with K562-aAPC; assay: percent inhibition of viability; higher = more inhibition; settings: 72 h, IL-2 2.5 ng/mL
Procedure: as §1

NK-YS (IL-2 2.5 ng/mL) [3] = assay: drug sensitivity score (DSS) (DSS units); higher = more sensitive; extreme values may be limits of the assay; settings: 72 h
[4] = test system: normal primary NK cells, pool 2 (3 donors) (IL-2 2.5 ng/mL); assay: as above; settings: 72 h
[5] = test system: normal primary NK cells, pool 1 (3 donors) (IL-2 2.5 ng/mL); assay: as above; settings: 72 h
SNK-6 (IL-2 2.5 ng/mL) [6] = assay: as above; settings: 72 h
KHYG-1 (IL-2 2.5 ng/mL) [7] = assay: as above; settings: 72 h
DERL-7 (IL-2 2.5 ng/mL) [8] = assay: as above; settings: 72 h
[9] = test system: normal primary NK cells, pool 3 (3 donors) (IL-2 2.5 ng/mL); assay: as above; settings: 72 h
NKL (IL-2 2.5 ng/mL) [10] = assay: as above; settings: 72 h
[11] = test system: normal primary NK cells, pool 1 (3 donors), resting (IL-2 0 ng/mL); assay: as above; settings: 72 h
KAI3 (IL-2 2.5 ng/mL) [12] = assay: as above; settings: 72 h
YT (IL-2 2.5 ng/mL) [13] = assay: as above; settings: 72 h
NK-92 (IL-2 2.5 ng/mL) [14] = assay: as above; settings: 72 h
IMC-1 (IL-2 20 ng/mL) [15] = assay: as above; settings: 72 h
NK-YS (IL-2 2.5 ng/mL) [16] = assay: percent inhibition of viability; higher = more inhibition; settings: 72 h
[17] = test system: normal primary NK cells, pool 2 (3 donors) (IL-2 2.5 ng/mL); assay: as above; settings: 72 h
[18] = test system: normal primary NK cells, pool 1 (3 donors) (IL-2 2.5 ng/mL); assay: as above; settings: 72 h
SNK-6 (IL-2 2.5 ng/mL) [19] = assay: as above; settings: 72 h
KHYG-1 (IL-2 2.5 ng/mL) [20] = assay: as above; settings: 72 h
DERL-7 (IL-2 2.5 ng/mL) [21] = assay: as above; settings: 72 h
[22] = test system: normal primary NK cells, pool 3 (3 donors) (IL-2 2.5 ng/mL); assay: as above; settings: 72 h
NKL (IL-2 2.5 ng/mL) [23] = assay: as above; settings: 72 h
[24] = test system: normal primary NK cells, pool 1 (3 donors), resting (IL-2 0 ng/mL); assay: as above; settings: 72 h
KAI3 (IL-2 2.5 ng/mL) [25] = assay: as above; settings: 72 h
YT (IL-2 2.5 ng/mL) [26] = assay: as above; settings: 72 h
NK-92 (IL-2 2.5 ng/mL) [27] = assay: as above; settings: 72 h
IMC-1 (IL-2 20 ng/mL) [28] = assay: as above; settings: 72 h

COCC[n+]1c2c(n(Cc3cnccn3)c1C)C(=O)c1ccccc1C2=O [YM155] (max concentration tested 10000 nM)
Settings | drug sensitivity score
DERL-7 (IL-2 2.5 ng/mL) [8] | 36.2
IMC-1 (IL-2 20 ng/mL) [15] | 48.1
KAI3 (IL-2 2.5 ng/mL) [12] | 35.8
KHYG-1 (IL-2 2.5 ng/mL) [7] | 33.8
NK-92 (IL-2 2.5 ng/mL) [14] | 33.2
NK-YS (IL-2 2.5 ng/mL) [3] | 34.2
NKL (IL-2 2.5 ng/mL) [10] | 42.9
SNK-6 (IL-2 2.5 ng/mL) [6] | 29.9
YT (IL-2 2.5 ng/mL) [13] | 37.6
[1] | 22
[4] | 12
[5] | 12.9
[9] | 8.63
[11] | 19.1

percent inhibition of viability [%]
Settings | 1 nM | 10 nM | 100 nM | 1000 nM | 10000 nM
DERL-7 (IL-2 2.5 ng/mL) [21] | 7.39 | 49.9 | 100 | 101 | 100
IMC-1 (IL-2 20 ng/mL) [28] | 65.3 | 99.4 | 100 | 101 | 100
KAI3 (IL-2 2.5 ng/mL) [25] | 8.21 | 49.4 | 93.5 | 106 | 103
KHYG-1 (IL-2 2.5 ng/mL) [20] | 2.01 | 20.5 | 102 | 106 | 102
NK-92 (IL-2 2.5 ng/mL) [27] | -8.35 | 27.6 | 93.5 | 105 | 102
NK-YS (IL-2 2.5 ng/mL) [16] | 0.18 | 29 | 97.7 | 107 | 103
NKL (IL-2 2.5 ng/mL) [23] | 10.2 | 90.5 | 104 | 108 | 102
SNK-6 (IL-2 2.5 ng/mL) [19] | 8.28 | 13.1 | 85.6 | 98.6 | 100
YT (IL-2 2.5 ng/mL) [26] | 5.75 | 59.2 | 102 | 106 | 102
[2] | -6.82 | 3.02 | 36.7 | 96.8 | 100
[17] | -1.75 | 4.96 | 15.5 | 50.5 | 97.1
[18] | -4.81 | -8.82 | 20.6 | 54.2 | 100
[22] | -2.28 | 1.02 | 6.74 | 31.9 | 86.7
[24] | -2.05 | -12.4 | 35.7 | 79.2 | 98.8

CNC(=O)CN1CCC(Oc2cc3c(Nc4cccc(Cl)c4F)ncnc3cc2OC)CC1 [Sapitinib] (max concentration tested 1000 nM)
Settings | drug sensitivity score
DERL-7 (IL-2 2.5 ng/mL) [8] | 0
IMC-1 (IL-2 20 ng/mL) [15] | 0.17
KAI3 (IL-2 2.5 ng/mL) [12] | 0
KHYG-1 (IL-2 2.5 ng/mL) [7] | 0
NK-92 (IL-2 2.5 ng/mL) [14] | 0
NK-YS (IL-2 2.5 ng/mL) [3] | 0
NKL (IL-2 2.5 ng/mL) [10] | 0
SNK-6 (IL-2 2.5 ng/mL) [6] | 8.21
YT (IL-2 2.5 ng/mL) [13] | 0.02
[1] | 1.29
[4] | 0
[5] | 0
[9] | 0
[11] | 0

percent inhibition of viability [%]
Settings | 0.1 nM | 1 nM | 10 nM | 100 nM | 1000 nM
DERL-7 (IL-2 2.5 ng/mL) [21] | 3.06 | 0.6 | -4.76 | -5 | -2.82
IMC-1 (IL-2 20 ng/mL) [28] | 0.18 | 0.99 | 5.5 | 4.61 | 15.1
KAI3 (IL-2 2.5 ng/mL) [25] | -6.57 | -1.42 | 0.58 | -5.73 | 11.3
KHYG-1 (IL-2 2.5 ng/mL) [20] | 0.69 | 2.55 | 10.2 | 2.53 | 4.41
NK-92 (IL-2 2.5 ng/mL) [27] | -3.59 | -7.59 | 7.58 | -10.8 | 6.39
NK-YS (IL-2 2.5 ng/mL) [16] | 0.21 | 0.23 | 5.94 | 0.04 | 5.37
NKL (IL-2 2.5 ng/mL) [23] | -6.69 | -1.96 | -5.01 | 0.25 | 5.26
SNK-6 (IL-2 2.5 ng/mL) [19] | 3.05 | 16.8 | 21.3 | 25.7 | 25.6
YT (IL-2 2.5 ng/mL) [26] | 1.69 | 2.8 | 8.28 | 2.39 | 14.2
[2] | 3.94 | 0.06 | -2.58 | 3.86 | 22.1
[17] | -5.36 | 0.45 | 2.66 | 4.26 | 5.15
[18] | 3.61 | -8.96 | 0.62 | -8.22 | 4.72
[22] | -11.4 | -8.98 | 0.1 | -3.48 | 6.33
[24] | 6.72 | -12.5 | 3.2 | -20.9 | -10.5

From the supplement of paper PMC5908809
